From US4126616A, “N-propylnorapomorphine diesters” (Hinshaw; William B., priority 1976, dated 1978)
Where a name gives a salt, the structure may show the parent alone. Read-outs that look alike come from different tables or passages of the source.

Test system: caudate lesioned mouse
Experiment: caudate lesioned mouse test (anti-parkinson activity)
Assay type: in vivo
Details: for responders at 416 µmol/kg: dose 0.416 m. mole/kg; for responders at 132 µmol/kg: dose 0.132 m. mole/kg; for Molar Potency Ratio Claimed/Ref. Ester: claimed N-propyl ester vs corresponding N-methyl reference ester
Method: An index of anti-parkinson activity was determined using the caudate lesioned mouse test described by Lotti, Life Sci., 10, 781-789 (1971). The mice having unilateral lesions of the caudate nucleus prepared according to the method of Lotti supra were observed immediately after the surgical procedure for strong postural asymmetries directed to the same side as the lesion. When this asymmetry was not observed, the mice were discarded. Operated mice were allowed at least 14 days to recover prior to drug testing. The lesioned mice were tested with apomorphine using 1.7 mg./kg. of base administered intraperitoneally in a 1% suspension in gum tragacanth. […] Only those mice which twisted or circled toward the lesioned side in all three test periods after the apomorphine injection were retained for further drug testing. The test drugs were all administered in 1% gum tragacanth suspension in a volume of 0.1 ml./10 g. of body weight. Doses were expressed in mg./kg. of free base.
Results of tests in the caudate lesioned mouse test described above which were obtained on the compounds of the invention are given in the table below identified, in each case, by the example numbers above where their preparations are described. Corresponding data for reference apomorphine diesters described in German patent application No. 2,154,162 are given in a side-by-side relationship for a number of the species. The reference compounds, designated Ref. 1, Ref. 1B, Ref. 1C, Ref. 1D, Ref. 1E, Ref. 1F, Ref. 2 and Ref. 2A correspond, respectively, to the compounds of the invention identified by Examples 1, 1B, 1C, 1D, 1E, 1F, 2 and 2A and differ from the latter only in having a methyl group on the apomorphine nitrogen from instead of an n-propyl group as present in the instant compounds.

[1] = Mus musculus, 0.5 h, 1/2 h post-drug, read-out: No. Mice Affected/No. Mice Tested, 1/2 h (converted)
[2] = Mus musculus, 1 h post-drug, read-out: No. Mice Affected/No. Mice Tested, 1 h (converted)
[3] = Mus musculus, 4 h post-drug, read-out: No. Mice Affected/No. Mice Tested, 4 h (converted)
[4] = Mus musculus, 6 h post-drug, read-out: No. Mice Affected/No. Mice Tested, 6 h (converted)
[5] = Mus musculus, 24 h post-drug, read-out: No. Mice Affected/No. Mice Tested, 24 h
[6] = Mus musculus, total, read-out: No. Mice Affected/No. Mice Tested, Total (converted)
[7] = Mus musculus, 0.5 h, dose 0.026 m. mole/kg, 1/2 h post-drug, read-out: No. Mice Affected/No. Mice Tested, 1/2 h (converted)
[8] = Mus musculus, dose 0.026 m. mole/kg, 1 h post-drug, read-out: No. Mice Affected/No. Mice Tested, 1 h (converted)
[9] = Mus musculus, dose 0.026 m. mole/kg, 2 h post-drug, read-out: No. Mice Affected/No. Mice Tested, 2 h (converted)
[10] = Mus musculus, dose 0.026 m. mole/kg, 4 h post-drug, read-out: No. Mice Affected/No. Mice Tested, 4 h (converted)
[11] = Mus musculus, dose 0.026 m. mole/kg, 6 h post-drug, read-out: No. Mice Affected/No. Mice Tested, 6 h (converted)
[12] = Mus musculus, dose 0.026 m. mole/kg, 24 h post-drug, read-out: No. Mice Affected/No. Mice Tested, 24 h
[13] = Mus musculus, dose 0.026 m. mole/kg, total, read-out: No. Mice Affected/No. Mice Tested, Total (converted)
[14] = Mus musculus, 2 h post-drug, read-out: No. Mice Affected/No. Mice Tested, 2 h (converted)
[15] = Mus musculus, 24 h post-drug, read-out: No. Mice Affected/No. Mice Tested, 24 h (converted)
[16] = Mus musculus, 0.5 h, read-out: No. Mice Affected/No. Mice Tested, 1/2 h
[17] = Mus musculus, 1 h, read-out: No. Mice Affected/No. Mice Tested, 1 h
[18] = Mus musculus, 2 h, read-out: No. Mice Affected/No. Mice Tested, 2 h
[19] = Mus musculus, 4 h, read-out: No. Mice Affected/No. Mice Tested, 4 h
[20] = Mus musculus, 6 h, read-out: No. Mice Affected/No. Mice Tested, 6 h
[21] = Mus musculus, 24 h, read-out: No. Mice Affected/No. Mice Tested, 24 h
[22] = Mus musculus, read-out: No. Mice Affected/No. Mice Tested, Total
[23] = Mus musculus, 0.5 h, dose 0.208 m. mole/kg, 1/2 h post-drug, read-out: No. Mice Affected/No. Mice Tested, 1/2 h (converted)
[24] = Mus musculus, dose 0.208 m. mole/kg, 1 h post-drug, read-out: No. Mice Affected/No. Mice Tested, 1 h
[25] = Mus musculus, dose 0.208 m. mole/kg, 4 h post-drug, read-out: No. Mice Affected/No. Mice Tested, 4 h (converted)
[26] = Mus musculus, dose 0.208 m. mole/kg, 6 h post-drug, read-out: No. Mice Affected/No. Mice Tested, 6 h (converted)
[27] = Mus musculus, dose 0.208 m. mole/kg, 24 h post-drug, read-out: No. Mice Affected/No. Mice Tested, 24 h (converted)
[28] = Mus musculus, dose 0.208 m. mole/kg, total, read-out: No. Mice Affected/No. Mice Tested, Total (converted)

CN1CCc2cccc3c2C1Cc1ccc(OC(=O)c2ccc(Cl)cc2)c(OC(=O)c2ccc(Cl)cc2)c1-3 (stereo not drawn) [Ref. 1F, reference compound]
0%: responders at 416 µmol/kg [1] | responders at 416 µmol/kg [2] | responders at 416 µmol/kg [3] | responders at 416 µmol/kg [4] | responders at 416 µmol/kg [5] | responders at 416 µmol/kg [6]

CCCC(=O)Oc1ccc2c(c1OC(=O)CCC)-c1cccc3c1C(C2)N(CCC)CC3 (stereo not drawn) [Ex. 1A, N-Propylnorapomorphine dibutanoate]
100%: responders at 132 µmol/kg [2] | responders at 132 µmol/kg [14] | responders at 132 µmol/kg [3] | responders at 132 µmol/kg [4] | responders at 132 µmol/kg [15] | responders at 132 µmol/kg [6]
0%: responders at 26 µmol/kg [7] | responders at 26 µmol/kg [8] | responders at 26 µmol/kg [9] | responders at 26 µmol/kg [10] | responders at 26 µmol/kg [11] | responders at 26 µmol/kg [12] | responders at 26 µmol/kg [13]
50%: responders at 132 µmol/kg [1]

CCCCC(=O)Oc1ccc2c(c1OC(=O)CCCC)-c1cccc3c1C(C2)N(CCC)CC3 (stereo not drawn) [Ex. 2A, N-propylnorapomorphine dipentanoate hydrochloride]
75%: responders at 132 µmol/kg [2] | responders at 132 µmol/kg [14] | responders at 132 µmol/kg [3] | responders at 132 µmol/kg [4] | responders at 132 µmol/kg [15] | responders at 132 µmol/kg [6]
0%: responders at 26 µmol/kg [7] | responders at 26 µmol/kg [8] | responders at 26 µmol/kg [9] | responders at 26 µmol/kg [10] | responders at 26 µmol/kg [11] | responders at 26 µmol/kg [12] | responders at 26 µmol/kg [13]
≥ 3: Molar Potency Ratio Claimed/Ref. Ester
50%: responders at 132 µmol/kg [1]

CCC(=O)Oc1ccc2c(c1OC(=O)CC)-c1cccc3c1C(C2)N(C)CC3 (stereo not drawn) [Ref. 1, reference compound]
41.7%: responders at 104 µmol/kg [16] | responders at 104 µmol/kg [17] | responders at 104 µmol/kg [22]
25%: responders at 52 µmol/kg [16] | responders at 52 µmol/kg [17] | responders at 52 µmol/kg [22]
0%: responders at 26 µmol/kg [16] | responders at 26 µmol/kg [17] | responders at 26 µmol/kg [18] | responders at 52 µmol/kg [18] | responders at 104 µmol/kg [18] | responders at 26 µmol/kg [19] | responders at 52 µmol/kg [19] | responders at 104 µmol/kg [19] | responders at 26 µmol/kg [20] | responders at 52 µmol/kg [20] | responders at 104 µmol/kg [20] | responders at 208 µmol/kg [20] | responders at 26 µmol/kg [21] | responders at 208 µmol/kg [21] | responders at 26 µmol/kg [22]
100%: responders at 208 µmol/kg [16] | responders at 208 µmol/kg [17] | responders at 208 µmol/kg [18] | responders at 208 µmol/kg [22]
98 µmol/kg: ED50 (Mus musculus, ED50, caudate lesioned mouse)
50%: responders at 208 µmol/kg [19]

CN1CCc2cccc3c2C1Cc1ccc(OC(=O)C(C)(C)C)c(OC(=O)C(C)(C)C)c1-3 (stereo not drawn) [Ref. 1C, reference compound]
0%: responders at 208 µmol/kg [23] | responders at 416 µmol/kg [1] | responders at 208 µmol/kg [24] | responders at 208 µmol/kg [25] | responders at 208 µmol/kg [26] | responders at 208 µmol/kg [27] | responders at 208 µmol/kg [28] | responders at 416 µmol/kg [5]
66.7%: responders at 416 µmol/kg [3] | responders at 416 µmol/kg [4] | responders at 416 µmol/kg [6]
33.3%: responders at 416 µmol/kg [2]

CCCN1CCc2cccc3c2C1Cc1ccc(OC(=O)c2ccc(Cl)cc2)c(OC(=O)c2ccc(Cl)cc2)c1-3 (stereo not drawn) [Ex. 1F, N-Propylnorapomorphine bis-4-chlorobenzoate]
25%: responders at 132 µmol/kg [2] | responders at 132 µmol/kg [4] | responders at 132 µmol/kg [6]
≥ 3: Molar Potency Ratio Claimed/Ref. Ester
0%: responders at 132 µmol/kg [1] | responders at 132 µmol/kg [3] | responders at 132 µmol/kg [15] | responders at 208 µmol/kg [24]
33.3%: responders at 208 µmol/kg [23] | responders at 208 µmol/kg [27]
100%: responders at 208 µmol/kg [26] | responders at 208 µmol/kg [28]
66.7%: responders at 208 µmol/kg [25]
